Converted amounts (≈) assume the structure as drawn.

One data set has as its system Pseudomonas aeruginosa. As to the kind of experiment: Antibacterial activity against Pseudomonas aeruginosa after 24 hrs by MTT method. It is filed as functional, organism-based. In general terms: Tetrazolium assays rely on reduction of a dye to a coloured formazan, in cell work by metabolically active cells.
Another data set deals with Bacillus subtilis. As to the kind of experiment: Antibacterial activity against Bacillus subtilis after 24 hrs by MTT method. It is filed as functional, organism-based.
A further data set concerns Escherichia coli. As to the kind of experiment: Antibacterial activity against Escherichia coli after 24 hrs by MTT method. Format: functional, organism-based.
Data set [1] addresses T1, Beta-ketoacyl-[acyl-carrier-protein] synthase III (Escherichia coli K-12, UniProt P0A6R0).
T1 sequence (P0A6R0 whole entry): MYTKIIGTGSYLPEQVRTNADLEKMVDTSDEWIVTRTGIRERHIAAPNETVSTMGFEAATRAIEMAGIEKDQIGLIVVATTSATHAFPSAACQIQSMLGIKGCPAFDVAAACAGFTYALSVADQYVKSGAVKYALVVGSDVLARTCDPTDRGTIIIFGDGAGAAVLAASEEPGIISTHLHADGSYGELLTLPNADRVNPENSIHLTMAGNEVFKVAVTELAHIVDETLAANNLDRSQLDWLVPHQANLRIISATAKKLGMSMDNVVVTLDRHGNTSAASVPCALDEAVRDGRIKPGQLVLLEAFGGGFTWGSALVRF
As to the kind of experiment: Inhibition of Escherichia coli FabH.

The nature of data set [2]: Cytotoxicity against human macrophages assessed as drug level causing microscopically detectable alteration in normal cell morphology after 24 hrs by MTT assay. It is filed as cell-based, Macrophage.
The subject of another data set is Bacillus thuringiensis. Description: Antibacterial activity against Bacillus thuringiensis after 24 hrs by MTT method. It is filed as functional, organism-based.

Broadly, the IC50 is the concentration at which inhibition is half-maximal. Higher therefore signals weaker potency. As a reminder, the CC50 is the concentration at which the toxic effect on the cells reaches its halfway point. On to `COc1ccc(-c2csc(N/N=C/c3ccc(OCCn4c([N+](=O)[O-])cnc4C)cc3)n2)cc1`, for which the IC50 in the data set on Pseudomonas aeruginosa worked out at 6.3 µg/mL (≈ 13.2 µM); in the data set with Bacillus subtilis, 19.4 µg/mL (≈ 40.5 µM); in the data set with Escherichia coli, 50.8 µg/mL (≈ 106 µM); in data set [1], 6.1 µM; in the data set with Bacillus thuringiensis it was 26.2 µg/mL (≈ 54.8 µM). Moreover, in data set [2], the CC50 at 24 h turned out to be 268 µg/mL.

Regarding `Cc1ncc([N+](=O)[O-])n1CCOc1ccc(/C=N/Nc2nc(-c3ccccc3Br)cs2)cc1`, the IC50 is 20.6 µg/mL (≈ 39.1 µM) in the data set on Pseudomonas aeruginosa; 27.6 µg/mL (≈ 52.3 µM) in the data set with Bacillus subtilis; 26.9 µg/mL (≈ 51 µM) in the data set with Escherichia coli; 4.9 µM in data set [1]; 88.4 µg/mL (≈ 168 µM) in the data set with Bacillus thuringiensis. Besides, the CC50 at 24 h in data set [2] is 322 µg/mL.

For the molecule `COc1ccc(-c2csc(N/N=C/c3cccc(OCCn4c([N+](=O)[O-])cnc4C)c3)n2)cc1`, the IC50 with Pseudomonas aeruginosa came out at 10.8 µg/mL (≈ 22.6 µM); in the data set on Bacillus subtilis, 1.9 µg/mL (≈ 3.97 µM); in the data set on Escherichia coli, 28.8 µg/mL (≈ 60.2 µM); in data set [1], 9.2 µM; with Bacillus thuringiensis, 5.9 µg/mL (≈ 12.3 µM). The CC50 at 24 h in data set [2] stood at 238 µg/mL.

Consider `NC[C@H]1O[C@H](O[C@H]2[C@H](O)[C@@H](O[C@H]3O[C@H](CO)[C@@H](O)[C@H](N)[C@H]3O)[C@H](N)C[C@@H]2N)[C@H](O)[C@@H](O)[C@@H]1O` [KANAMYCIN], for which the IC50 with Escherichia coli is 46.3 µg/mL (≈ 95.6 µM); in data set [1] it was 6.8 µM.

Regarding `Cc1ncc([N+](=O)[O-])n1CCOc1cccc(/C=N\NC(N)=S)c1`, the IC50 in the data set on Pseudomonas aeruginosa was 85.6 µg/mL (≈ 246 µM); in the data set on Bacillus subtilis, 96.3 µg/mL (≈ 276 µM); in the data set on Escherichia coli it was 89.7 µg/mL (≈ 257 µM); in the data set with Bacillus thuringiensis, 78.6 µg/mL (≈ 226 µM).

As to `Cc1ncc([N+](=O)[O-])n1CCOc1ccc(/C=N/Nc2nc(-c3ccc(Br)cc3)cs2)cc1`, the IC50 with Pseudomonas aeruginosa was found to be 85.3 µg/mL (≈ 162 µM); in the data set with Bacillus subtilis it was 98.8 µg/mL (≈ 187 µM); in the data set with Escherichia coli, 43.3 µg/mL (≈ 82.1 µM); in data set [1] it was 6.2 µM; in the data set with Bacillus thuringiensis, 66.9 µg/mL (≈ 127 µM).

`Cc1ncc([N+](=O)[O-])n1CCOc1cccc(/C=N/Nc2nc(-c3ccc(C(F)(F)F)cc3)cs2)c1`: the IC50 in the data set on Pseudomonas aeruginosa came out at 3.6 µg/mL (≈ 6.97 µM); with Bacillus subtilis it was 3.7 µg/mL (≈ 7.16 µM); in the data set on Escherichia coli, 48.8 µg/mL (≈ 94.5 µM); in data set [1] it was 13.5 µM; in the data set with Bacillus thuringiensis, 73 µg/mL (≈ 141 µM). Further, the CC50 at 24 h in data set [2] worked out at 517 µg/mL.

As for `Cc1ncc([N+](=O)[O-])n1CCOc1cccc(/C=N/Nc2nc(-c3ccc(Br)cc3)cs2)c1`, the IC50 in the data set with Pseudomonas aeruginosa turned out to be 83.9 µg/mL (≈ 159 µM); in the data set on Bacillus subtilis, 117 µg/mL (≈ 223 µM); in the data set on Escherichia coli it was 98.3 µg/mL (≈ 186 µM); in data set [1], 20.8 µM; with Bacillus thuringiensis, 98 µg/mL (≈ 186 µM).

For `Cc1ncc([N+](=O)[O-])n1CCOc1cccc(/C=N/Nc2nc(-c3ccccc3Br)cs2)c1`, the IC50 with Pseudomonas aeruginosa is 67.7 µg/mL (≈ 128 µM); in the data set with Bacillus subtilis it was 15.5 µg/mL (≈ 29.4 µM); with Escherichia coli it was 75.2 µg/mL (≈ 143 µM); in data set [1], 36.2 µM; in the data set on Bacillus thuringiensis it was 58.7 µg/mL (≈ 111 µM).

As to `Cc1ncc([N+](=O)[O-])n1CCOc1ccc(/C=N/Nc2nc(-c3ccc(C(F)(F)F)cc3)cs2)cc1`, the IC50 stood at 98 µg/mL (≈ 190 µM) in the data set with Pseudomonas aeruginosa; 32.8 µg/mL (≈ 63.5 µM) in the data set on Bacillus subtilis; 41.2 µg/mL (≈ 79.8 µM) with Escherichia coli; 7.2 µM in data set [1]; 78.8 µg/mL (≈ 153 µM) in the data set with Bacillus thuringiensis. Besides, the CC50 at 24 h in data set [2] came to 218 µg/mL.

Regarding `Cc1ncc([N+](=O)[O-])n1CCOc1ccc(/C=N\NC(N)=S)cc1`, the IC50 with Pseudomonas aeruginosa is 98.3 µg/mL (≈ 282 µM); in the data set with Bacillus subtilis, 103 µg/mL (≈ 296 µM); with Escherichia coli it was 111 µg/mL (≈ 318 µM); with Bacillus thuringiensis, 88.4 µg/mL (≈ 254 µM).

`Cc1ncc([N+](=O)[O-])n1CCOc1ccc(/C=N/Nc2nc(-c3ccccc3)cs2)cc1`: the IC50 was found to be 38.2 µg/mL (≈ 85.2 µM) with Pseudomonas aeruginosa; 13.1 µg/mL (≈ 29.2 µM) with Bacillus subtilis; 38.3 µg/mL (≈ 85.4 µM) with Escherichia coli; 5.2 µM in data set [1]; 15.5 µg/mL (≈ 34.6 µM) with Bacillus thuringiensis. Moreover, in data set [2], the CC50 at 24 h was found to be 467 µg/mL.

For `Cc1ncc([N+](=O)[O-])n1CCOc1cccc(/C=N/Nc2nc(-c3ccccc3)cs2)c1`, the IC50 in the data set with Pseudomonas aeruginosa was determined as 21.6 µg/mL (≈ 48.2 µM); in the data set with Bacillus subtilis it was 118 µg/mL (≈ 264 µM); with Escherichia coli, 48.6 µg/mL (≈ 108 µM); in data set [1] it was 8.6 µM; in the data set on Bacillus thuringiensis it was 53.7 µg/mL (≈ 120 µM).

These data come from ChEMBL document CHEMBL3352486, “Design, synthesis and biological evaluation of metronidazole-thiazole derivatives as antibacterial inhibitors” (Bioorg Med Chem Lett, 2014).
